From US20140329868A1, “METHODS FOR TREATING HYPERTENSION” (TAKEDA PHARMACEUTICALS U.S.A., INC., priority 2005, published 2014)

Key:
[1] = tested on: oxonic acid (OA)-induced hyperuricemic model in Sprague-Dawley rats; assay: Example 4: systolic blood pressure by tail cuff in conscious normal and OA-dosed rats; assay type: in vivo; conditions: FIG. 2
Experimental: Materials and Methods. To produce hyperuricemia, rats received OA (Sigma, St Louis Mo., USA) 750 mg/kg body weight daily by gastric gavage. To investigate the treatment effect of febuxostat (also referred to herein as “Fx”), the drug was administered in drinking water at 50 mg/L (approximately 5-6 mg/kg/day) four weeks after OA dosing while the respective controls received 5.84 mg/L of NaCl in drinking water (to maintain a salt concentration equivalent to the Febuxostat-containing water). […] Body weight, food and water intakes were measured daily. Systolic blood pressure, obtained in conscious rats by a tail cuff sphygmomanometer, and plasma uric acid were measured in all animals at baseline and at the end of four and eight weeks. […]
Evaluation. Food and water intake were determined daily. Systolic blood pressure (hereinafter “SBP”) was measured in conscious animals by a tail cuff sphygmomanometer using an automated system (XBP-100, Kent Scientific Co, USA). […] Plasma UA, insulin and triglycerides were quantified using commercial kits (Diagnostic Chemicals Ltd, USA; Crystalchem, USA and Spinreact, Spain, respectively).
Statistical Analysis. Values were expressed as mean±standard error of the mean (hereinafter “SEM”). In the study, values from the respective four treatment groups were analyzed by one-way analysis of variance (hereinafter “ANOVA”). […]

[2] = Example 4: body weight, food and water intake, side effects in normal and OA-dosed rats; assay type: in vivo, Sprague-Dawley rats
Experimental: Materials and Methods. To produce hyperuricemia, rats received OA (Sigma, St Louis Mo., USA) 750 mg/kg body weight daily by gastric gavage. To investigate the treatment effect of febuxostat (also referred to herein as “Fx”), the drug was administered in drinking water at 50 mg/L (approximately 5-6 mg/kg/day) four weeks after OA dosing while the respective controls received 5.84 mg/L of NaCl in drinking water (to maintain a salt concentration equivalent to the Febuxostat-containing water). The following four groups (n=10-11) were included in the study: Group 1, normal control rats which received no treatment for eight weeks; Group 2, Normal+Febuxostat rats which received no treatment for four weeks and then were treated with febuxostat for four weeks from Weeks 5 to 8; Group 3, OA rats which received OA for eight weeks; and Group 4, OA+Febuxostat rats which received OA for eight weeks and febuxostat for four weeks from Weeks 5 to 8. Body weight, food and water intakes were measured daily. Systolic blood pressure, obtained in conscious rats by a tail cuff sphygmomanometer, and plasma uric acid were measured in all animals at baseline and at the end of four and eight weeks. A renal micropuncture procedure along with systemic arterial blood pressure monitoring under pentobarbital anesthesia were performed at the end of eight weeks followed by morphologic evaluation of the renal preglomerular microvasculature.
Evaluation. Food and water intake were determined daily. Systolic blood pressure (hereinafter “SBP”) was measured in conscious animals by a tail cuff sphygmomanometer using an automated system (XBP-100, Kent Scientific Co, USA). All animals were preconditioned for blood pressure measurements one week before each experiment. Plasma UA, insulin and triglycerides were quantified using commercial kits (Diagnostic Chemicals Ltd, USA; Crystalchem, USA and Spinreact, Spain, respectively).
Statistical Analysis. Values were expressed as mean±standard error of the mean (hereinafter “SEM”). In the study, values from the respective four treatment groups were analyzed by one-way analysis of variance (hereinafter “ANOVA”). When the ANOVA p value was <0.05, the following comparisons were made using Bonferroni multiple comparison test: Normal Control vs. Normal+Fx, Normal Control vs. OA, Normal Control vs. OA+Fx and OA vs. OA+Fx. Pair wise comparisons were performed using contrast within the framework of the statistical model.

[3] = tested on: subjects having a systolic BP≧160 mmHg or diastolic BP≧95 mmHg (elevated blood pressure); assay: Example 3: blood pressure change in subjects with elevated blood pressure, none taking angiotensin antagonists (two double-blind studies); assay type: in vivo, human
Experimental: None of these subjects were taking any angiotensin antagonists, but might have been taking some other type of antihypertensive drug at the baseline (start) of the study. These 187 subjects were part of two (2) DB studies. One study was of 28 weeks in duration during which subjects received 80 mg, 120 mg or 240 mg QD of febuxostat or placebo or allopurinol 300 or 100 mg QD, depending on the subject's renal function. The second study was of 52 weeks in duration during which subjects received 80 mg or 120 mg QD of febuxostat or allopurinol 300 mg QD. Of these 187 subjects, all completed 4 weeks of treatment and 132 completed 28 weeks of treatment. A total of 52 weeks of treatment was completed by 15 subjects in the febuxostat 80 mg QD group, 11 in the febuxostat 120 mg QD group and 22 in the allopurinol 300/100 mg QD group. Because of the shorter duration of one of the 2 DB studies, no subject in the placebo and febuxostat 240 mg QD groups were treated for 52 weeks.

[4] = Normal + Fx rats, End of Week 4 (before Fx)
[5] = Normal + Fx rats, End of Week 8
[6] = Normal + Fx rats, Week 1 (before Fx)
[7] = Normal + Fx rats, Week 4 (before Fx)
[8] = OA + Fx rats, End of Week 4 (before Fx)
[9] = OA + Fx rats, Week 1 (before Fx)
[10] = OA + Fx rats, Week 4 (before Fx)
[11] = 80 mg QD, after 4 weeks of treatment
[12] = 80 mg QD, after 28 weeks of treatment
[13] = 80 mg QD, after 52 weeks of treatment
[14] = 120 mg QD, after 4 weeks of treatment
[15] = 120 mg QD, after 28 weeks of treatment
[16] = 120 mg QD, after 52 weeks of treatment
[17] = 240 mg QD, after 4 weeks of treatment
[18] = 240 mg QD, after 28 weeks of treatment

SMILES: Cc1nc(-c2ccc(OCC(C)C)c(C#N)c2)sc1C(=O)O [febuxostat, 2-[3-cyano-4-(2-methylpropoxy)phenyl]-4-methylthiazole-5-carboxylic acid]
- systolic blood pressure by tail cuff (effect in words) ([1]; OA-dosed conscious rats): significant but partial decrease in systolic BP
- systolic blood pressure by tail cuff (effect in words) ([1]; normal conscious rats): did not alter blood pressure in normal rats
- BW ([2]; Normal + Fx rats, Baseline (Fx 50 mg/L in drinking water Weeks 5 to 8), mean ± SEM): 319.9 ± 3.0 gr
- % BW gain from baseline [2, 4]: 11.9 ± 1.8%
- BW [2, 4]: 359.3 ± 7.2 gr
- % BW gain from Week 4 [2, 5]: 6.6 ± 0.8 %
- % BW gain from baseline [2, 5]: 18.7 ± 1.8%
- BW [2, 5]: 377.7 ± 7.5 gr
- Daily Food intake [2, 6]: 18.3 ± 0.6 gr
- Daily Water intake [2, 6]: 34.5 ± 2.4 mL
- Daily Food intake [2, 7]: 16.0 ± 0.7 gr
- Daily Water intake [2, 7]: 32.3 ± 1.4 mL
- Daily Food intake ([2]; Normal + Fx rats, Week 8): 18.0 ± 0.4 gr
- Daily Water intake ([2]; Normal + Fx rats, Week 8): 39.7 ± 1.7 mL
- BW ([2]; OA + Fx rats, Baseline (Fx 50 mg/L in drinking water Weeks 5 to 8), mean ± SEM): 323.6 ± 3.2 gr
- % BW gain from baseline [2, 8]: 6.7 ± 1.7%
- BW [2, 8]: 345.3 ± 5.7 gr
- % BW gain from Week 4 ([2]; OA + Fx rats, End of Week 8): 5.2 ± 0.7 %
- % BW gain from baseline ([2]; OA + Fx rats, End of Week 8): 12.3 ± 1.9%
- BW ([2]; OA + Fx rats, End of Week 8): 363.2 ± 5.7 gr
- Daily Food intake [2, 9]: 15.1 ± 0.7 gr
- Daily Water intake [2, 9]: 36.6 ± 2.2 mL
- Daily Food intake [2, 10]: 17.4 ± 0.7 gr
- Daily Water intake [2, 10]: 33.8 ± 2.4 mL
- Daily Food intake ([2]; OA + Fx rats, Week 8): 18.6 ± 0.4 gr
- Daily Water intake ([2]; OA + Fx rats, Week 8): 42.6 ± 2.3 mL
- behaviour and side effects ([2]; all rats, eight-week study): no side effects were observed
- mean change from baseline for diastolic BP [3, 11]: −3.1 mmHg
- mean change from baseline for mean arterial BP [3, 11]: −4.3 mmHg
- mean change from baseline for systolic BP [3, 11]: −6.7 mmHg
- mean change from baseline for diastolic BP [3, 12]: −7.3 mmHg
- mean change from baseline for mean arterial BP [3, 12]: −9.0 mmHg
- mean change from baseline for systolic BP [3, 12]: −12.6 mmHg
- mean change from baseline for diastolic BP [3, 13]: −8.4 mmHg
- mean change from baseline for mean arterial BP [3, 13]: −11.6 mmHg
- mean change from baseline for systolic BP [3, 13]: −17.9 mmHg
- mean change from baseline for diastolic BP [3, 14]: −7.5 mmHg
- mean change from baseline for mean arterial BP [3, 14]: −7.8 mmHg
- mean change from baseline for systolic BP [3, 14]: −8.5 mmHg
- mean change from baseline for diastolic BP [3, 15]: −8.5 mmHg
- mean change from baseline for mean arterial BP [3, 15]: −9.9 mmHg
- mean change from baseline for systolic BP [3, 15]: −12.8 mmHg
- mean change from baseline for diastolic BP [3, 16]: −7.4 mmHg
- mean change from baseline for mean arterial BP [3, 16]: −11.1 mmHg
- mean change from baseline for systolic BP [3, 16]: −18.6 mmHg
- mean change from baseline for diastolic BP [3, 17]: −9.1 mmHg
- mean change from baseline for mean arterial BP [3, 17]: −9.8 mmHg
- mean change from baseline for systolic BP [3, 17]: −11.3 mmHg
- mean change from baseline for diastolic BP [3, 18]: −4.9 mmHg
- mean change from baseline for mean arterial BP [3, 18]: −6.3 mmHg
- mean change from baseline for systolic BP [3, 18]: −9.2 mmHg
